Assay results published in patent publication US20190093096A1, “COMOSAIN AND BROMELAINS AS IMMUNO-THERAPY IN THE TREATING AND/OR PREVENTING VARIOUS TYPES OF CANCER IN A MAMMAL” (priority 2017, published 2019).

How the values were obtained:
[1] = Toxicity of rutin, quercetin, kaempherol and vitexin in mice by oral administration; conditions: for adverse effects on hematopeutic, renal, hepatic systems / toxicity: oral, mouse, rutin 1500, quercetin 1250, kaempherol 1000, vitexin 500 mg/kg; for body weight during observation / pathological abnormality of internal organs, visually or microscopically / survival at day 180: single oral dose; for body weight during observation: 180 days of observation; for pathological abnormality of internal organs, visually or microscopically: sacrifice on day 181; for survival at day 180: rutin 1500, kaempherol 1000, vitexin 500 mg/kg
[2] = Analysis for fatty streak deposition in thoracic aorta; assay type: in vivo, New Zealand white rabbits; conditions: control group: thick layer; 1% cholesterol diet, 8 weeks
[3] = Fatty degeneration in the liver of the rabbits; assay type: in vivo, New Zealand white rabbits; conditions: 1% cholesterol diet, 8 weeks
Text: According to the report of Fogt F. and Nanji A., (Toxicology and Applied Pharmacology; 136, pp 87-93, 1996) and Keegan A. et al., (Journal of Hepatology; 23, pp 591-600, 1995). Fatty degeneration of liver can be classified into four grades based upon the abnormal fat containing cells around the central vein of liver acinus, for example: grade 1 (0-25%), grade 2 (26-50%), grade 3 (51-75%), grade4 (76-100%). The effects of rutin, quercetin, kaempherol and vitexin on liver tissue on the rabbits from Example 4 Step B were examined.

[4] = Blood analysis on rabbits fed high cholesterol diets; assay type: in vivo, New Zealand white rabbits; conditions: for decrease of plasma total cholesterol as compared to control group / decrease of plasma triglycerides as compared to control group: 1% cholesterol diet plus 0.15% flavonoid
Protocol: The rabbits were fed for 8 weeks with free access to specific high cholesterol diets and water. Body weight was recorded every 7 days and the records were analyzed. […] (Rutin, quercetin and kaempherol were purchased from Aldrich-Sigma Co. St. Louis, Mo. USA) (Vitexin was purchased from Indofine Co. Sumerville, N.J. USA)
(Step B) After 8 weeks of breeding, the rabbits were anesthetized with injection of ketamine 75 mg/kg in the femoral muscle and sacrificed. Blood samples were collected from the heart of each rabbit to determine the blood analysis consisting of; complete blood count (CBC), Chemistry-7 and 24, (including Liver and renal function tests), lipid profiles, (including Total cholesterol, HDL, LDL, VLDL and triglycerides), coagulation factors consisting of; Prothrombin time (PT), Partial thromboplastin time (PTT), and immuno-globulin-E (an anti-allergenic factor).
The blood samples collected from rabbits of the six dietary groups were allowed to stand for 2 hours, then centrifuged at 4000 rpm for 10 minutes. (Megafuge, Baxter-Heraeus instrument Co. N.J., USA) The supernatants were separated and stored in a deep freeze before analysis. The chemistry analysis was carried out by blood chemistry analyzer (Cobras-Integra-700, Roche Diagnostic Lab. Indiana, USA) to determine the changes in total cholesterol, HDL, LDL, triglycerides, liver function tests (such as SGOT, SGPT, G-GPT) and coagulation factors (PT, PTT) (Bayer-MLA-Electra-900 Automatic coagulation timer). The results were tested by using student t-test and Microsoft excel-7.0 program. The results are depicted in Table III. • 3.

[5] = tested on: breast cancer cell line; assay: Growth inhibition of breast cancer cell line by Quercetin and Naringenin in vitro; assay type: cell-based
[6] = tested on: lung cancer cells; assay: Inhibition of tumor cell growth of lung cancer by pepsin and trypsin in vitro; assay type: cell-based; conditions: 72 hours at 37 C, 10% CO2, Coulter counter
Text: The graph represents the two experiments with Pepsin and Trypsin.

Molecule: O=c1c(O)c(-c2ccc(O)cc2)oc2cc(O)cc(O)c12 [Kaempherol, 3,5,7,4′ tetra-hydroxy-flavone]
- adverse effects on hematopeutic, renal, hepatic systems [1]: no adverse effects
- toxicity [1]: no toxicity
- body weight during observation [1]: no body weight loss
- pathological abnormality of internal organs, visually or microscopically [1]: did not develop any pathological abnormality
- survival at day 180 [1]: All mice were alive
- macrophage lipid cell complex in the aorta walls (microscopic pictures) [2]: no or a very thin layer of macrophage lipid cell complex
- microscopic features of the liver (fat containing cells) [3]: almost all of the liver cells are normal without containing fat particles
- liver function and WBC ([4]; rabbit, in vivo): not affected
- decrease of plasma total cholesterol as compared to control group ([4]; rabbits, 8 weeks): 30%
- decrease of plasma triglycerides as compared to control group ([4]; rabbits, 8 weeks): 22%
- reducing plasma total cholesterol and triglycerides, compared with Simvastatin ([4]; rabbits, 8 weeks): more effective

Molecule: O=C1C[C@@H](c2ccc(O)cc2)Oc2cc(O)cc(O)c21 [Naringenin]
- growth of breast cancer cell line [5]: Growth inhibition

Molecule: O=c1c(O)c(-c2ccc(O)c(O)c2)oc2cc(O)cc(O)c12 [Quercetin, 3,5,7,3′,4′ penta-hydroxy flavone]
- adverse effects on hematopeutic, renal, hepatic systems [1]: no adverse effects
- body weight during observation [1]: no body weight loss
- pathological abnormality of internal organs, visually or microscopically [1]: did not develop any pathological abnormality
- survival at day 180 [1]: All mice were alive
- macrophage lipid cell complex in the aorta walls (microscopic pictures) [2]: no or a very thin layer of macrophage lipid cell complex
- microscopic features of the liver (fat containing cells) [3]: almost all of the liver cells are normal without containing fat particles
- liver function and WBC ([4]; rabbit, in vivo): not affected
- decrease of plasma total cholesterol as compared to control group ([4]; rabbits, 8 weeks): 33%
- decrease of plasma triglycerides as compared to control group ([4]; rabbits, 8 weeks): 47%
- reducing plasma total cholesterol and triglycerides, compared with Simvastatin ([4]; rabbits, 8 weeks): more effective
- growth of breast cancer cell line [5]: Growth inhibition

Molecule: C[C@@H]1O[C@@H](OC[C@H]2O[C@@H](Oc3c(-c4ccc(O)c(O)c4)oc4cc(O)cc(O)c4c3=O)[C@H](O)[C@@H](O)[C@@H]2O)[C@H](O)[C@H](O)[C@H]1O [Rutin, Quercetin-3-rutinoside]
- adverse effects on hematopeutic, renal, hepatic systems [1]: no adverse effects
- toxicity [1]: no toxicity
- body weight during observation [1]: no body weight loss
- pathological abnormality of internal organs, visually or microscopically [1]: did not develop any pathological abnormality
- survival at day 180 [1]: All mice were alive
- decrease of plasma total cholesterol as compared to control group ([4]; rabbits, 8 weeks): 32%
- decrease of plasma triglycerides as compared to control group ([4]; rabbits, 8 weeks): 45%
- liver function and WBC ([4]; rabbits, 8 weeks, unlike the Simvastatin group): not affected

Molecule: O=c1cc(-c2ccc(O)cc2)oc2c(C3O[C@H](CO)[C@@H](O)[C@H](O)[C@H]3O)c(O)cc(O)c12 (stereo partly drawn) [Vitexin, 8-D-glucosyl-4′,5,7 trihydroxy-flavone]
- adverse effects on hematopeutic, renal, hepatic systems [1]: no adverse effects
- toxicity [1]: no toxicity
- body weight during observation [1]: no body weight loss
- pathological abnormality of internal organs, visually or microscopically [1]: did not develop any pathological abnormality
- survival at day 180 [1]: All mice were alive
- macrophage lipid cell complex in the aorta walls (microscopic pictures) [2]: no or a very thin layer of macrophage lipid cell complex
- microscopic features of the liver (fat containing cells) [3]: almost all of the liver cells are normal without containing fat particles
- liver function and WBC ([4]; rabbit, in vivo): not affected
- decrease of plasma total cholesterol as compared to control group ([4]; rabbits, 8 weeks): 30%
- decrease of plasma triglycerides as compared to control group ([4]; rabbits, 8 weeks): 17%
- reducing plasma total cholesterol and triglycerides, compared with Simvastatin ([4]; rabbits, 8 weeks): more effective

Molecule: pepsin: proteinase purchased from Sigma-Aldrich
- tumor cell growth of lung cancer [6]: Inhibition of tumor cell growth

B1: trypsin: proteinase purchased from Sigma-Aldrich (protein, UniProt P00760 24-246, looked up)
Serine protease 1: IVGGYTCGANTVPYQVSLNSGYHFCGGSLINSQWVVSAAHCYKSGIQVRLGEDNINVVEGNEQFISASKSIVHPSYNSNTLNNDIMLIKLKSAASLNSRVASISLPTSCASAGTQCLISGWGNTKSSGTSYPDVLKCLKAPILSDSSCKSAYPGQITSNMFCAGYLEGGKDSCQGDSGGPVVCSGKLQGIVSWGSGCAQKNKPGVYTKVCNYVSWIKQTIASN
- tumor cell growth of lung cancer [6]: Inhibition of tumor cell growth
